According to ChEMBL document CHEMBL5223114, “Design, synthesis and biological evaluation of novel macrocyclic derivatives bearing aniline pyrimidine scaffolds as EGFR-TKIs” (Bioorg Med Chem Lett, 2022):
pIC50: −log10 of the molar value.

Experiments:
[1] = tested on: BaF3; assay: Antiproliferative activity against mouse BaF3 cells harboring EGFR del19/T790M double mutant assessed as inhibition of cell growth incubated for 72 hrs by CCK-8 assay; assay type: functional, cell-based; settings: BaF3, 72 h
[2] = tested on: BaF3; assay: Antiproliferative activity against mouse BaF3 cells harboring EGFR del19/T790M/C797S triple mutant assessed as inhibition of cell growth incubated for 72 hrs by CCK-8 assay; assay type: functional, cell-based; settings: BaF3, 72 h
[3] = target: Epidermal growth factor receptor (Homo sapiens, UniProt P00533, 746-750DEL/C797S/T790M); assay: Inhibition of EGFR d746-750/T790M/C797S triple mutant (unknown origin)
Epidermal growth factor receptor (Homo sapiens, UniProt P00533, 746-750DEL/C797S/T790M), sequence (P00533 whole entry, looked up, stated change not applied): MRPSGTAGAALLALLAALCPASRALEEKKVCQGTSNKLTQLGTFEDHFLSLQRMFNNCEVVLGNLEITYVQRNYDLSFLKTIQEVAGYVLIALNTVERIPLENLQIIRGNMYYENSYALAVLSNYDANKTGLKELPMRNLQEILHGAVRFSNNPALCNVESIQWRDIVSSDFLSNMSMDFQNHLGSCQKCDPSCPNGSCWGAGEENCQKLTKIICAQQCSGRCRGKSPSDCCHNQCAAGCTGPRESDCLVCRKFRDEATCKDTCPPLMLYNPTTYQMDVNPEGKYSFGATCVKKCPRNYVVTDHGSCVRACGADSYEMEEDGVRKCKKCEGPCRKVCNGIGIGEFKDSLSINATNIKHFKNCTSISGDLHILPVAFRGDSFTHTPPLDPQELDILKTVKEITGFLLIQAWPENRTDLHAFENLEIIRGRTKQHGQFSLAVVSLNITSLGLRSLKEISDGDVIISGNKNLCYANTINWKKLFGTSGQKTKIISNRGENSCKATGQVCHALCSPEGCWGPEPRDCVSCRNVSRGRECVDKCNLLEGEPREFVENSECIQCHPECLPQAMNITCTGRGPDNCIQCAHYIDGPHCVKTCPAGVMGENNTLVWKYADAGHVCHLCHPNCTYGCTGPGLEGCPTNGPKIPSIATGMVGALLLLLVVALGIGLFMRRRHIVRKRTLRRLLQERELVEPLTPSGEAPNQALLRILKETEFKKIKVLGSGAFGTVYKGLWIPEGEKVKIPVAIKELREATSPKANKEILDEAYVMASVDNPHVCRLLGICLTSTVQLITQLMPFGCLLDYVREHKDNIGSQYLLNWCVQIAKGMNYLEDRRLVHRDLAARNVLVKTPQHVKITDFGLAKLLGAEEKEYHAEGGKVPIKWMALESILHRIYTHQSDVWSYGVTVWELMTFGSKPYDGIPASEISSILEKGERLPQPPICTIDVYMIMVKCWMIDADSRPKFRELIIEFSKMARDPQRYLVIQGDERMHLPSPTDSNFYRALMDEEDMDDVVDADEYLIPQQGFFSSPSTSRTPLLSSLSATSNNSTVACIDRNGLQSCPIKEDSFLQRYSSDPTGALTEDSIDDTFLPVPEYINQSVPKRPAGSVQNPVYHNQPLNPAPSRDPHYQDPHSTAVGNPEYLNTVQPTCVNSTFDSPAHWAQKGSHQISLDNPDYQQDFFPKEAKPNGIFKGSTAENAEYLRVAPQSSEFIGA

[4] = target: Epidermal growth factor receptor (Homo sapiens, UniProt P00533, 746-750DEL/T790M); assay: Inhibition of EGFR d746-750/T790M double mutant (unknown origin)
Epidermal growth factor receptor (Homo sapiens, UniProt P00533, 746-750DEL/T790M), sequence (P00533 whole entry, looked up, stated change not applied): as above

[5] = target: Epidermal growth factor receptor (Homo sapiens, UniProt P00533, L858R/T790M); assay: Inhibition of EGFR L858R/T790M double mutant (unknown origin)
Epidermal growth factor receptor (Homo sapiens, UniProt P00533, L858R/T790M), sequence (P00533 25-1210 T790M/L858R limits assumed): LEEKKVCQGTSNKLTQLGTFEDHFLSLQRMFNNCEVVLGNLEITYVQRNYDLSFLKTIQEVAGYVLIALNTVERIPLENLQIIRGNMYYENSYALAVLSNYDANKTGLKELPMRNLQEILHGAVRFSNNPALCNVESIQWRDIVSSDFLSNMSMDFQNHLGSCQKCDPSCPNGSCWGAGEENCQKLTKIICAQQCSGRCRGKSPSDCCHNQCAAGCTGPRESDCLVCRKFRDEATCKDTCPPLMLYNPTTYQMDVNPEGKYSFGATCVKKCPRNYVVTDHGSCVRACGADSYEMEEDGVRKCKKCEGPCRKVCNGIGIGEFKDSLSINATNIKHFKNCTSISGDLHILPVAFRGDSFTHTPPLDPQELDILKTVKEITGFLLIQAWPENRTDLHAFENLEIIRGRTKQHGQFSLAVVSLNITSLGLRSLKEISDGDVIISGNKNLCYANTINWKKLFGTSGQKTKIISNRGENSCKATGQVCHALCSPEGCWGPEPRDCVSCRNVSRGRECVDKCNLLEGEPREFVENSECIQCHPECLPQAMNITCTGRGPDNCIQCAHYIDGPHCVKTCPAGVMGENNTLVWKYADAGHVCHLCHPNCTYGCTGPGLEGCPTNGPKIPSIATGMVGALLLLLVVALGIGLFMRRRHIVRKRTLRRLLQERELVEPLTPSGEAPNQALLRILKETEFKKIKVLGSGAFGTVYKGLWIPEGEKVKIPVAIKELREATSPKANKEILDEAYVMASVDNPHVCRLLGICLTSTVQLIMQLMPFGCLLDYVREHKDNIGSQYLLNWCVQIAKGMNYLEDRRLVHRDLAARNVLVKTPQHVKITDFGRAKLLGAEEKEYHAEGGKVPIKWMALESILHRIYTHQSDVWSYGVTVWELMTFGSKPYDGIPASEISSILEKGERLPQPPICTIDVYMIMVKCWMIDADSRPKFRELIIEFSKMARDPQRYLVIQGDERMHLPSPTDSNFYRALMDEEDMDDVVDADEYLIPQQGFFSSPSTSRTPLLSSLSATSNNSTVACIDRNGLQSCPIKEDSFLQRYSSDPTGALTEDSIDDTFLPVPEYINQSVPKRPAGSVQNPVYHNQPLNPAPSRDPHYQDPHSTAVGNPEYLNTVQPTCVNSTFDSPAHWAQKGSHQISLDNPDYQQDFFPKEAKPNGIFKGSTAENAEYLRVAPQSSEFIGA

SMILES	pIC50 [1]	pIC50 [2]	pIC50 [3]	pIC50 [4]	pIC50 [5]
C=CC(=O)N1CCCCCCCn2cc(c3ccccc32)-c2ccnc(n2)Nc2cc1ccc2F	6.67	6.15	–	–	–
C=CC(=O)N1CCCCCCn2cc(c3ccccc32)-c2ccnc(n2)Nc2cccc1c2	6.67	6.08	–	–	–
C=CC(=O)Nc1cc(Nc2nccc(-c3cn(C)c4ccccc34)n2)c(OC)cc1N(C)CCN(C)C [OSIMERTINIB]	7.48	6.07	–	–	–
C=CC(=O)N1CCCCCCCn2cc(c3ccccc32)-c2ccnc(n2)Nc2cc1ccc2OC	6.83	6.06	< 7.00	9.19	8.00
C=CC(=O)N1CCCCCCCn2cc(c3ccccc32)-c2ccnc(n2)Nc2cc1c(OCCCF)cc2F	–	–	< 7.00	8.53	7.59
C=CC(=O)N1CCCCCCn2cc(c3ccccc32)-c2ccnc(n2)Nc2cc1ccc2F	7.46	6.16	< 7.00	9.66	8.19

Now from value to compound:

pIC50 [1]	pIC50 [2]	pIC50 [3]	pIC50 [4]	pIC50 [5]	SMILES
7.20	6.08	< 7.00	9.22	7.88	C=CC(=O)N1CCCCCCn2cc(c3ccccc32)-c2ccnc(n2)Nc2cc1c(OCCCF)cc2F
–	–	< 7.00	7.88	7.60	C=CC(=O)N1CCCCCCCCCn2cc(c3ccccc32)-c2ccnc(n2)Nc2cccc1c2
6.66	6.09	7.26	9.26	8.46	C=CC(=O)N1CCCCCCCn2cc(c3ccccc32)-c2ccnc(n2)Nc2cccc1c2
–	–	7.06	8.15	7.70	C=CC(=O)N1CCCCCCCCn2cc(c3ccccc32)-c2ccnc(n2)Nc2cccc1c2
7.29	6.05	< 7.00	9.33	8.08	C=CC(=O)N1CCCCCCn2cc(c3ccccc32)-c2ccnc(n2)Nc2cc1ccc2OC
